Data from publication PMC7022378, “Structural Analyses on the Deamidation of N-Terminal Asn in the Human N-Degron Pathway” (Biomolecules, 2020).
Numbering of substitutions follows the chain as printed.

Assays:
[1] = tested on: NTAN1 S69A; experiment: In vitro deamidation assay, NTAN1 S69A mutant; format: biochemical, human; details: substrate NRAAA, 100 μM, 37 °C, pH 7.0, LC-MS (Figure 1d); three independent experiments
Excerpt: (§1) NTAN1 mutants were constructed using QuikChange Ⅱ Site-Directed Mutagenesis Kit (Agilent Technologies, Santa Clara, CA, USA). NTAN1 mutants, Q51A, S69A, T73A, T74A, C75A, H92A, S254A, T255A, and E260A were generated. The mutants were expressed and purified as for NTAN1.
(§2) Peptides with Nt-Asn which mimic potential substrates of NTAN1 were synthesized: NRA, NRAA, NRAAA, NRQVA, NRQVAA, NRQVAAA, NFAAR, NLAAR, NRAAR, NAAAR, NNAAR, NPAAR, NGAAR, and NDAAR. Non-Nt-Asn peptides, QRAAA and VRAAA, were also synthesized. NTAN1 (at concentrations of 0.5 μM, 0.16 μM, or 0.04 μM) and the peptides (at a concentration of 100 μM) were mixed and incubated at 37 °C in a buffer containing 200 mM NaCl and 10 mM HEPES-NaOH (pH 7.0). […] The deamidation coefficient of peptides catalyzed by NTAN1 was assessed by the slope of exponential curve drawn from the concentration of the substrate over incubation time.
(§3) The peptides were quantified by an LC-MS system (1260 Infinity/6430 Triple Quad, Agilent Technologies) equipped with a binary pump (G1312B), a thermostated column compartment (G1316C), a thermostat (G1330B), and an autosampler (G1367E). […] The data acquisition and processing were performed by using MassHunter Workstation Software Quantitative Analysis (Version B.05.00; Agilent Technologies, Santa Clara, CA, USA). […]

[2] = biological target: T1, NTAN1 E260A (Homo sapiens, UniProt Q96AB6, E260A); experiment: In vitro deamidation assay, NTAN1 E260A mutant; format: biochemical; details: substrate NRAAA, 100 μM, 37 °C, pH 7.0, LC-MS (Figure 3d); three independent experiments
T1 construct: The gene for full-length NTAN1 was cloned into pET-21a(+); made in house; host or cells: E. coli Rosetta 2(DE3)
T1 sequence (Q96AB6 1-310 E260A): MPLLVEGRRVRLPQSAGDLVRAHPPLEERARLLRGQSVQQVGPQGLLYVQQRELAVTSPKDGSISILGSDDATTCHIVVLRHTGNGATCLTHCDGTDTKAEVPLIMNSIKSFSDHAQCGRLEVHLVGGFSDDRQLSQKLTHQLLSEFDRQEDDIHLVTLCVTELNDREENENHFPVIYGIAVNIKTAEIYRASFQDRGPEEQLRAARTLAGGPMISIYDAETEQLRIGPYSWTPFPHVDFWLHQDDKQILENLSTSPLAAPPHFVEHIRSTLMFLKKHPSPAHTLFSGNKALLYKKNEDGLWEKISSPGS
Excerpt: as §1, §2, §3

[3] = biological target: T2, NTAN1 T255A (Homo sapiens, UniProt Q96AB6, T255A); experiment: In vitro deamidation assay, NTAN1 T255A mutant; format: biochemical; details: substrate NRAAA, 100 μM, 37 °C, pH 7.0, LC-MS (Figure 3c); three independent experiments
T2 construct: The gene for full-length NTAN1 was cloned into pET-21a(+); made in house; host or cells: E. coli Rosetta 2(DE3)
T2 sequence (Q96AB6 1-310 T255A): T1 sequence (Q96AB6 1-310 E260A) with T255A, A260E
Excerpt: as §1, §2, §3

[4] = biological target: T3, NTAN1 Q51A (Homo sapiens, UniProt Q96AB6, Q51A); experiment: In vitro deamidation assay, NTAN1 Q51A mutant; format: biochemical; details: substrate NRAAA, 100 μM, 37 °C, pH 7.0, LC-MS (Figure 3e); three independent experiments
T3 construct: The gene for full-length NTAN1 was cloned into pET-21a(+); made in house; host or cells: E. coli Rosetta 2(DE3)
T3 sequence (Q96AB6 1-310 Q51A): T1 sequence (Q96AB6 1-310 E260A) with Q51A, A260E
Excerpt: as §1, §2, §3

Deamidation activity of NTAN1 E260A [2]: lost its deamidation activity
Enzymatic activity of NTAN1 T255A [3]: abolished
Deamidation activity of NTAN1 Q51A [4]: lost most deamidation activity
Substance: NRAAA [synthesized peptide with Nt-Asn, 5 mer model substrate of NTAN1]
Fold lower deamidation activity of NTAN1 S69A than wild-type NTAN1 [1]: approximately 5 fold
